Experimental data published in patent US20260250337A1, “HYBRID ANTIMICROBIAL PEPTIDES” (UNIVERSIDADE FEDERAL DO ABC, priority 2023, published 2026).
No end group written: not given here.

Key:
[1] = test system: S. epidermidis ATCC 12228; test: Liquid growth inhibition assay, MIC; format: cell-based; details: 37° C., 18 h
C. tropicalis IOC 4560 = test: Liquid growth inhibition assay, MIC (antifungal); format: cell-based, Candida tropicalis; details: 37° C., 24 h
How it was run: (§1)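 Growth was read by absorbance at 595 nm after incubation at 37° C. with two-fold peptide dilutions spanning 0.09-50 μmol L^−1. Bacteria grew in Peptone Broth for 18 h and fungi in Potato Dextrose Broth for 24 h.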

[2] = test system: Plasmodium gallinaceum sporozoites; test: Antiplasmodial activity, fluorescence microscopy; format: cell-based
Protocol: Method. The activity of the peptides against Plasmodium gallinaceum sporozoites was determined by fluorescence microscopy, as previously described by Silva et. al.^83. Briefly, 9,000 sporozoites were isolated from the glands of infected Aedes aegypti mosquitos and incubated with serially diluted peptides (ranging from 0.1 to 1.6 μmol L^−1) at 37° C. for 1 h. A PBS solution and the surfactant digitonin^84, 85 were used as negative and positive controls, respectively. Propidium iodide was used to stain dead cells. Assays were executed using fluorescence microscopy. Three biological repeats each with three different mosquito batches (n=9) were used.

E. cloacae β-12 = test: Liquid growth inhibition assay, MIC; format: cell-based, Enterobacter cloacae; details: 37° C., 18 h
How it was run: as §1

C. albicans MDM8 = test: Liquid growth inhibition assay, MIC (antifungal); format: cell-based, Candida albicans; details: 37° C., 24 h
How it was run: as §1

[3] = Circular dichroism, helical fraction (Lifson-Roig); format: physicochemical; details: peptide 50 μmol L^−1
Protocol: Method. Circular dichroism (CD) assays were performed with a Spectropolarimeter Jasco Mod. J-815 (JascoCorp). CD spectra were obtained in Far-UV (195-260 nm), and analyzed in the following solutions: water, 2,2,2-trifluoroethanol (TFE) in water (3:2, v:v), phosphate buffer saline (PBS, 10 mmol L^−1, pH 7.4), sodium dodecyl sulfate (SDS 20 mmol L^−1) in water, palmitoyloleoylphosphatidylcholine (POPC; 10 mmol L^−1), palmitoyloleoylphosphatidylcholine:dioleylphosphatidylethanolamine (POPC:DOPE; 3:1, mol:mol, 10 mmol L^−1) and palmitoyloleoylphosphatidylcholine:palmitoyloleoylphosphatidylglycerol (POPC:POPG; 3:1, mol:mol, 10 mmol L^−1) at a peptide concentration of 50 μmol L^−1. These experiments were performed as described in detail by Pedron et al.^62.

S. marcescens ATCC 4112 = test: Liquid growth inhibition assay, MIC; format: cell-based, Serratia marcescens; details: 37° C., 18 h
How it was run: as §1

human erythrocytes = test: Hemolytic activity assay; format: cell-based; details: human erythrocytes, 1 h
How it was run: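 Fresh heparinised human erythrocytes incubated with peptide at 0.1 to 100 μmol L−1 for 1 h at room temperature; supernatant absorbance at 405 nm after centrifugation. MHC taken as highest concentration with 100% erythrocytes viable; SDS and PBS as positive and negative controls, three biological repeats.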

B. megaterium ATCC 10778 = test: Liquid growth inhibition assay, MIC; format: cell-based, Bacillus megaterium; details: 37° C., 18 h
How it was run: as §1

A. baumannii ATCC19606 = test: Broth microdilution MIC, ESKAPE pathogens; format: cell-based; details: LB, 37° C., 24 h
Protocol: (§2) Method. The minimal inhibitory concentration (MIC) against the ESKAPE pathogens was determined using the broth microdilution method^81, 82 in Luria-Bertani (LB) medium. The MIC value was defined as the lowest concentration of peptide at which no microbial growth was observed. A. baumannii ATCC19606, E. coli ATCC11775, E. coli AIC221, E. coli AIC222, K. pneumoniae ATCC13883, S. aureus ATCC12600 P. aeruginosa PAO1, and P. aeruginosa PA14 were incubated on agar plates, and after 24 h, three isolated colonies were inoculated to 5 mL of Luria-Bertani (LB) broth and maintained at 37° C. overnight with shaking. Peptides were then added to 96-well polystyrene microtiter plates at concentrations ranging from 0 to 128 μmol L^−1, and 5×10^5 CFU mL^−1 of each bacterium was inoculated in each well. The plates were incubated at 37° C. for 24 h. Bacterial growth was measured using a microplate reader at 610 nm. Three independent replicates were performed.

S. aureus ATCC12600 = test: Broth microdilution MIC, ESKAPE pathogens; format: cell-based; details: LB, 37° C., 24 h
Protocol: as §2

P. aeruginosa PAO1 = test: Broth microdilution MIC, ESKAPE pathogens; format: cell-based; details: LB, 37° C., 24 h
Protocol: as §2

P. aeruginosa PA14 = test: Broth microdilution MIC, ESKAPE pathogens; format: cell-based; details: LB, 37° C., 24 h
Protocol: as §2

K. pneumoniae ATCC13883 = test: Broth microdilution MIC, ESKAPE pathogens; format: cell-based; details: LB, 37° C., 24 h
Protocol: as §2

E. coli AIC222 = test: Broth microdilution MIC, ESKAPE pathogens; format: cell-based; details: LB, 37° C., 24 h
Protocol: as §2

E. coli AIC221 = test: Broth microdilution MIC, ESKAPE pathogens; format: cell-based; details: LB, 37° C., 24 h
Protocol: as §2

E. coli ATCC11775 = test: Broth microdilution MIC, ESKAPE pathogens; format: cell-based; details: LB, 37° C., 24 h
Protocol: as §2

M. luteus A270 = test: Liquid growth inhibition assay, MIC; format: cell-based, Micrococcus luteus; details: 37° C., 18 h
How it was run: as §1

Substance: FLPLIGRVLSGIL-NH2 [Temporin A, Phe-Leu-Pro-Leu-Ile-Gly-Arg-Val-Leu-Ser-Gly-Ile-Leu, reference compound]
- MIC S. epidermidis ATCC 12228 [1]: >50 µM
- MIC C. tropicalis IOC 4560 (C. tropicalis IOC 4560): 12.5 µM
- P. gallinaceum (% sporozoites at 0.8 μmol L^−1) ([2]; 0.8 μmol L^−1, fluorescent (propidium iodide stained) sporozoites, 37° C., 1 h): 15%
- antiplasmodial activity ([2]; P. gallinaceum sporozoites, concentration range tested): no activity
- MIC E. cloacae β-12 (E. cloacae β-12): >50 µM
- MIC C. albicans MDM8 (C. albicans MDM8): 25 µM
- Helical fraction (fH) PBS ([3]; PBS 10 mmol L^−1, pH 7.4): 0.07
- Helical fraction (fH) POPC ([3]; POPC 10 mmol L^−1): 0.31
- Helical fraction (fH) POPC:DOPE ([3]; POPC:DOPE 3:1, mol:mol, 10 mmol L^−1): 0.44
- Helical fraction (fH) POPC:POPG ([3]; POPC:POPG 3:1, mol:mol, 10 mmol L^−1): 0.19
- Helical fraction (fH) SDS ([3]; SDS 20 mmol L^−1 in water): 0.47
- Helical fraction (fH) TFE/Water ([3]; TFE in water (3:2, v:v)): 0.65
- Helical fraction (fH) Water ([3]; water): 0.08
- MIC S. marcescens ATCC 4112 (S. marcescens ATCC 4112): 12.5 µM
- Hemolytic activity, concentration of peptide needed to kill 10% of red blood cells (human erythrocytes): 0.2 µmol/L
- MHC (human erythrocytes; room temperature, concentration with approximately 0% of hemolytic activity): 0.2 µmol/L
- MIC B. megaterium ATCC 10778 (B. megaterium ATCC 10778): 6.3 µM
- MIC A. baumannii ATCC19606 (A. baumannii ATCC19606): 32 µM
- MIC S. aureus ATCC12600 (S. aureus ATCC12600): 8 µM
- MIC P. aeruginosa PAO1 (P. aeruginosa PAO1): 128 µM
- MIC P. aeruginosa PA14 (P. aeruginosa PA14): 128 µM
- MIC K. pneumoniae ATCC13883 (K. pneumoniae ATCC13883): 128 µM
- MIC E. coli AIC222 (E. coli AIC222): 32 µM
- MIC E. coli AIC221 (E. coli AIC221): 128 µM
- MIC E. coli ATCC11775 (E. coli ATCC11775): 64 µM
- MIC M. luteus A270 (M. luteus A270): 3.1 µM
